# In PMC11904715, “Discovery of Novel Pyrrolidine-Based Chalcones as Dual Inhibitors of α-Amylase and α-Glucosidase: Synthesis, Molecular Docking, ADMET Profiles, and Pharmacological Screening” (ACS Omega, 2025):
# Tests used:
# [1] = tested on: nonsmall lung cancer (A549) cells; assay: Cytotoxic activity, MTT cell viability assay, A549; assay type: cell-based; settings: Homo sapiens, A549, 24 h
# Procedure: (§1) In this research, the nonsmall lung cancer (A549) and bronchial epithelial normal (BEAS-2B) cells were used for cytotoxicity experiments. All of the cells were cultured in Dulbecco’s Modified Eagle Medium (Gibco, USA) cell medium containing 10% fetal calf serum (FBS; Gibco, USA) and 1% penicillin/streptomycin (Gibco, USA) in an incubator at 37 °C and 5% CO2.[49],[50]
# (§2) In a 96-well cell culture plate, cells were seeded at a density of 6 × 10^4 cells/mL and observed to be cultured for 24 h. The cells must have 70% confluence before chemical exposure. After 70% confluency incubation, the cells were treated with different concentrations of compounds for 24 h. All chemicals were dissolved in DMSO. […] The amount of DMSO contained in the chemical at the highest concentration was used as a negative control.
# (§3) Cell viability was determined by 3-[4,5-dimethylthiazol-2-yl]-2,5-diphenyltetrazolium bromide (MTT) assay. This method is specifically used to evaluate live cells. The succinate dehydrogenase system of active mitochondria reduces the tetrazolium salt MTT to formazan.[51] For the MTT assay, MTT solution […] was added into the cells (200 μL/well) and incubated for 1 h at 37 °C. Absorbance was measured at 570 nm using an Epoch microplate spectrophotometer (BioTek Instruments, Winooska, VT).[52]
# [2] = molecular target: α-glucosidase; assay: α-glucosidase inhibitory activity, spectrophotometric p-nitrophenyl-α-D-glucopyranoside method; assay type: biochemical; settings: for IC50: mean ± SEM of three parallel measurements, concentration range 50–100–200–400 μM, read-out: antidiabetic inhibition activity IC50 α-lucosidase
# Procedure: Specifically, 50 μL of phosphate buffer (10 mM, pH 6.9), 25 μL of p-nitrophenyl-α-D-glucopyranoside in phosphate buffer (10 mM, pH 6.9), 10 μL of sample solution, and 25 μL of α-glucosidase (0.1 U/mL) in phosphate buffer (10 mM, pH 6.0) were combined in a 96-well microplate. After 20 min of incubation at 37 °C, 90 μL of Na2CO3 (100 mM) was added to each well to halt the enzymatic reaction. The absorbance was measured at 400 nm by using a 96-well microplate reader.
# (§4) All biological activity data were taken in three parallel measurements for four different concentrations of each synthesis sample. The results of the biological activity analyses are presented as the IC50 values.
# [3] = tested on: bronchial epithelial normal (BEAS-2B) cells; assay: Cytotoxic activity, MTT cell viability assay, BEAS-2B; assay type: cell-based; settings: at the determined IC50 values
# Procedure: as §1, §2, §3
# [4] = as above; assay type: cell-based; settings: human, BEAS-2B normal bronchial epithelial cells
# Procedure: as §1, §2, §3
# [5] = molecular target: α-amylase; assay: α-amylase inhibitory activity, spectrophotometric starch/Lugol method; assay type: biochemical; settings: mean ± SEM of three parallel measurements; concentration range 50–100–200–400 μM; read-out: antidiabetic inhibition activity IC50 α-amylase
# Procedure: Briefly, 25 μL of the sample solution at various concentrations was mixed with 50 μL of an α-amylase solution (0.1 U/mL) in a phosphate buffer (20 mM, pH 6.9, prepared with 6 mM NaCl) in a 96-well microplate. This mixture was preincubated at 37 °C for 10 min. Following the preincubation, 50 μL of a starch solution (0.05%) was added, and the reaction mixture was incubated for another 10 min at 37 °C. The reaction was then terminated by adding 25 μL of HCl (0.1 M), followed by the addition of 100 μL of Lugol’s solution for monitoring.
# as §4
# [6] = molecular target: alpha-amylase; parameters: method as in PMID 34064448, PMID 32525781, PMID 33272713, PMID 35832461, PMID 28495082; settings: Figure 1 design strategy; cited from earlier work
SMILES,IC50 [1],IC50 [2],toxic effect on healthy BEAS-2B cells [3],IC50 at 24 h [4],α-glucosidase inhibitory effect compared with acarbose [2],IC50 [5],IC50 [6]
"O=C(/C=C/c1cccc(OC(F)(F)F)c1)c1ccc(N2CCCC2)cc1 [Compound 8, (E)-1-(4-(pyrrolidin-1-yl)phenyl)-3-(3-(trifluoromethoxy)phenyl)prop-2-en-1-one]",60 µM,147.5 ± 0.9 µM,no toxic effects,> 100 µM,–,–,–
"O=C(/C=C/c1ccc(C(F)(F)F)cc1F)c1ccc(N2CCCC2)cc1 [Compound 12, (E)-3-(2-fluoro-4-(trifluoromethyl)phenyl)-1-(4-(pyrrolidin-1-yl)phenyl)prop-2-en-1-one]",> 100 µM,81.8 ± 0.85 µM,–,> 100 µM,better inhibitory effect,80.11 ± 0.49 µM,–
"O=C(/C=C/c1ccc(F)c(C(F)(F)F)c1)c1ccc(N2CCCC2)cc1 [Compound 13, (E)-3-(4-fluoro-3-(trifluoromethyl)phenyl)-1-(4-(pyrrolidin-1-yl)phenyl)prop-2-en-1-one]",> 100 µM,261.5 ± 1.69 µM,–,> 100 µM,–,83.8 ± 0.01 µM,–
"O=C(/C=C/c1cc(C(F)(F)F)cc(C(F)(F)F)c1)c1ccc(N2CCCC2)cc1 [Compound 10, (E)-3-(3,5-bis(trifluoromethyl)phenyl)-1-(4-(pyrrolidin-1-yl)phenyl)prop-2-en-1-one]",> 100 µM,44.2 ± 2.42 µM,–,> 100 µM,better inhibitory effect,39.68 ± 0.27 µM,–
"O=C(/C=C/c1ccccc1F)c1ccc(N2CCCC2)cc1 [Compound 2, (E)-3-(2-fluorophenyl)-1-(4-(pyrrolidin-1-yl)phenyl)prop-2-en-1-one]",> 100 µM,189 ± 1.94 µM,–,> 100 µM,–,51.96 ± 0.12 µM,–
O=C(/C=C/c1ccccc1)c1ccccc1 [trans-chalcone],–,–,–,–,–,–,96.4 µM
"O=C(/C=C/c1ccccc1)c1ccc(N2CCCC2)cc1 [Compound 1, (E)-3-Phenyl-1-(4-(pyrrolidin-1-yl)phenyl)prop-2-en-1-one]",> 100 µM,50.2 ± 2.32 µM,–,> 100 µM,better inhibitory effect,–,–
"O=C(/C=C/c1cccc(C(F)(F)F)c1F)c1ccc(N2CCCC2)cc1 [Compound 11, (E)-3-(2-fluoro-3-(trifluoromethyl)phenyl)-1-(4-(pyrrolidin-1-yl)phenyl)prop-2-en-1-one]",> 100 µM,131 ± 3.02 µM,–,> 100 µM,–,–,–
"O=C(/C=C/c1cccc(C(F)(F)F)c1)c1ccc(N2CCCC2)cc1 [Compound 6, (E)-1-(4-(pyrrolidin-1-yl)phenyl)-3-(3-(trifluoromethyl)phenyl)prop-2-en-1-one]",> 100 µM,54.1 ± 2.87 µM,–,> 100 µM,better inhibitory effect,83.78 ± 0.38 µM,–
"O=C(/C=C/c1cccc(F)c1)c1ccc(N2CCCC2)cc1 [Compound 3, (E)-3-(3-fluorophenyl)-1-(4-(pyrrolidin-1-yl)phenyl)prop-2-en-1-one]",> 100 µM,–,–,> 100 µM,better inhibitory effect,–,–
"O=C(/C=C/c1ccc(OC(F)(F)F)cc1)c1ccc(N2CCCC2)cc1 [Compound 9, (E)-1-(4-(pyrrolidin-1-yl)phenyl)-3-(4-(trifluoromethoxy)phenyl)prop-2-en-1-one]",> 100 µM,61.3 ± 2.48 µM,–,> 100 µM,better inhibitory effect,39.97 ± 0.26 µM,–
"O=C(/C=C/c1ccc(C(F)(F)F)cc1)c1ccc(N2CCCC2)cc1 [Compound 7, (E)-1-(4-(pyrrolidin-1-yl)phenyl)-3-(4-(trifluoromethyl)phenyl)prop-2-en-1-one]",> 100 µM,46.5 ± 2.16 µM,–,> 100 µM,better inhibitory effect,38.2 ± 0.83 µM,–
"O=C(/C=C/c1ccccc1C(F)(F)F)c1ccc(N2CCCC2)cc1 [Compound 5, (E)-1-(4-(pyrrolidin-1-yl)phenyl)-3-(2-(trifluoromethyl)phenyl)prop-2-en-1-one]",82.2 µM,173 ± 3.45 µM,no toxic effects,97.7 µM,–,91.71 ± 0.28 µM,–
"O=C(/C=C/c1ccc(F)cc1)c1ccc(N2CCCC2)cc1 [Compound 4, (E)-3-(4-fluorophenyl)-1-(4-(pyrrolidin-1-yl)phenyl)prop-2-en-1-one]",> 100 µM,58.9 ± 3.26 µM,–,> 100 µM,better inhibitory effect,30.63 ± 0.25 µM,–
